From US4428938A, “Peptides affecting the immune regulation and a process for their preparation” (Richter Gedeon Vegyeszeti Gyar Rt., priority 1981, dated 1984)
Non-standard residues stand in square brackets, D forms with d. Residues, ends and D or L forms follow the SMILES beside them. pGlu = O=C1CC[C@@H](C(=O)O)N1

Legend:
[1] = test system: lymphocytes of patients suffering from rheumatoid arthritis; assay: Active E-rosette test, lymphocytes of rheumatoid arthritis patients; format: cell-based, human; details: for E-rosette forming activity, percentage amount of active lymphocytes: n = 4; for Effect on E-rosette forming activity (in words): 10^-9 moles/lit.
Protocol: (§1) The active E-rosette test was carried out according to a modified method of Wybran et al [Wybran et al: New Engl. J. Med. 292, 475 (1975)] by the lymphocites of healthy and autoimmune patients (rheumatoid arthritis and systemic lupus erythematosus). To 50 μl of a lymphocyte cell suspension 10^-3 -10^-11 moles/lit. solutions of the test material were added and the mixture was incubated in an atmosphere containing 5.0% of carbon dioxide, at 37° C. for 60 minutes. Thereafter 50 μlit. of a 1% sheep erythrocite suspension were added and the mixture was centrifuged at 1000 r.p.m. for 10 minutes followed by shaking with a modified Gallenkampf-shaker (shaking time: 30 sec, stroke: 8 cm, shaking frequency: 65/min.). The rosettes were fixed with a 0.1% glutaric aldehyde (50 μlit. for each tube, 3 min.). Lymphocytes bonding more than three sheep erythrocite were counted under a microscope and 4×100 cells were evaluated. The separated lymphocytes contain macrophages and polymorphonuclear cells (up to 10%) as an impurity. The number of the cells forming the rosettes was corrected by this value each case.

[2] = test system: lymphocytes of healthy persons; assay: Active E-rosette test, lymphocytes of healthy persons; format: cell-based, human; details: for E-rosette forming activity, percentage amount of active lymphocytes: n = 4
Protocol: as §1

[3] = test system: plaque forming spleen cells (PFC); assay: Effect on plaque forming spleen cells (PFC); format: in vivo, H. Wistar rats; details: for Ratio of the plaque formation produced by treated and untreated (control) animals: new-born animals
Protocol: (2) The number of the cells producing a specific antibody was determined by the method of Canningham Handbook of Experimental Immunology (editor: D. M. Weir), 2nd Volume, p. 285, Blackwell, Oxford-London (1978). According to this method from the spleen cells of immunized animals, sheep erythrocyte suspension and complement a homogenous suspension was prepared and it was placed into a chamber suitable for forming a single cell layer. Around the spleen cells lytic areolas are formed, the number of which is identical with the number of the cells producing a specific antibody (plaque forming cells, PFC).
The test animals, not later than 12 hour after birth, were given a single i.p. dose of the test material. According to the method (1) three different doses of each substance were tested. On the 7th day after immunization the plaque formation of the spleen cells isolated from the animals was examined.

[4] = test system: antibody production against sheep erythrocyte; assay: Effect on antibody production (Ceglowski's method), agglutination titer; format: in vivo, H. Wistar rats
Protocol: (1) The effect on antibody production was tested according to Ceglowski's method [Ceglowski: Ann. N.Y. Acad. Sci. 249, 343 (1975)]. New-born H. Wistar rats were treated with single 25 μlit. doses of 4×10^-3 -4×10^-7 moles/lit. of the test material (9 animals for each dose) at the latest at the 12th hour after birth. The 14-day animals were then immunized with a sheep erythrocyte suspension administering 0.5 ml. of a 5% sheep erythrocyte suspension each animal intraperitoneally. On the 7th day after immunization the animals were decapitated. The blood of three animals was mixed and from the serum obtained (after centrifuging at 3000 r.p.m. for 10 minutes) the titers for antibodies were determined by the method of Takatsy [Takatsy: Acta Microbiol. Acad. Sci. Hung. 3, 191 (1955)]. The results are expressed in agglutination titers. The titer corresponds to the […] dilution of the serum in which agglutination can be observed.

[5] = test system: lymphocytes forming the E-rosette; assay: E-rosette formation, summary statement; format: cell-based
Protocol: as §1

[6] = test system: antibody production against sheep erythrocyte; assay: Effect on antibody production (Ceglowski's method), agglutination titer; format: in vivo, H. Wistar rats; remark: listed apart in the source
[7] = single i.p. dose 1.0·10^-4 mmoles
[8] = single i.p. dose 1.0·10^-6 mmoles
[9] = single 25 μlit. dose of 4·10^-4 moles/liter to new-born rats
[10] = single 25 μlit. dose of 4·10^-6 moles/liter to new-born rats
[11] = single i.p. dose 1.0·10^-8 mmoles
[12] = single 25 μlit. dose of 4·10^-8 moles/liter to new-born rats

SMILES | E-rosette forming activity, percentage amount of active lymphocytes ([1]; 10^-3 moles/liter) | E-rosette forming activity, percentage amount of active lymphocytes ([1]; 10^-5 moles/liter) | E-rosette forming activity, percentage amount of active lymphocytes ([1]; 10^-7 moles/liter) | E-rosette forming activity, percentage amount of active lymphocytes ([1]; 10^-9 moles/liter) | E-rosette forming activity, percentage amount of active lymphocytes ([1]; 10^-11 moles/liter) | E-rosette forming activity, percentage amount of active lymphocytes ([2]; 10^-3 moles/liter) | E-rosette forming activity, percentage amount of active lymphocytes ([2]; 10^-5 moles/liter) | Effect on E-rosette forming activity (in words) ([2]; 10^-7 moles/lit.) | E-rosette forming activity, percentage amount of active lymphocytes ([2]; 10^-7 moles/liter) | E-rosette forming activity, percentage amount of active lymphocytes ([2]; 10^-9 moles/liter) | E-rosette forming activity, percentage amount of active lymphocytes ([2]; 10^-11 moles/liter) | In vivo effect on plaque forming spleen cells (in words) ([3]; in all tested doses) | Ratio of the plaque formation produced by treated and untreated (control) animals [3, 7] | Ratio of the plaque formation produced by treated and untreated (control) animals [3, 8] | Effect on E-rosette forming activity (in words) [1] | Antibody production, agglutination titer (X ± S.D.) [4, 9] | Antibody production, agglutination titer (X ± S.D.) [4, 10] | In vivo effect on plaque forming spleen cells (in words) ([3]; in lower doses) | Ratio of the plaque formation produced by treated and untreated (control) animals [3, 11] | Activity: increases the number of the lymphocytes forming the E-rosette [5] | also measured
CC(C)[C@H](NC(=O)[C@H](CC(=O)O)NC(=O)[C@H](CCCCN)NC(=O)[C@H](C)N)C(=O)O [Ala--Lys--Asp--Val, Ala-Lys-Asp-Val] (H-AKDV-OH) | 25.3% | 22.8% | 22.5% | 23.9% | 20.3% | 43.4% | 34.9% | significant stimulating effect | 47.5% | 39.1% | 36.2% | significant inhibiting activity | 0.04 | 0.01 |  |  |  |  |  |  | 
N=C(N)NCCC[C@H](N)C(=O)N[C@@H](CCCCN)C(=O)N[C@@H](CC(=O)O)C(=O)O [Arg--Lys--Asp, Arg-Lys-Asp] (H-Arg-Lys-Asp-OH) | 27.2% | 28.6% | 28.8% | 30.7% | 28.4% | 29.9% | 34.1% | significant stimulating effect | 41.7% | 39.3% | 35.9% |  | 0.7 | 2.1 | significantly stimulated | 6.0 ± 0 | 7.3 ± 0.6 | about two-times increase | 1.8 | active | In vivo effect on the antibody production (in words) ([4]; 4.10^-6 moles/lit.): significant stimulating activity; Antibody production, agglutination titer (X ± S.D.) [6, 12]: 6.0 ± 1.2
C[C@H](NC(=O)[C@H](CC(=O)O)NC(=O)[C@H](CCCCN)NC(=O)[C@@H](N)CCCNC(=N)N)C(=O)O [Arg--Lys--Asp--Ala, Arg-Lys-Asp-Ala] (H-RKDA-OH) | 28.6% | 24.5% | 25.8% | 25.3% | 27.9% | 41.2% | 39.6% |  | 40.8% | 36.4% | 40.5% | substantial increase | 4.9 | 1.9 |  |  |  |  | 3.0 |  | Effect on E-rosette forming activity (in words) ([2]; 10^-11 moles/lit.): stimulating effect; In vivo effect on the antibody production (in words) ([4]; 4.10^-7 moles/lit.): significant stimulating activity; Antibody production, agglutination titer (X ± S.D.) ([4]; single 25 μlit. dose of 4·10^-3 moles/liter to new-born rats): 10.5 ± 1.5; Antibody production, agglutination titer (X ± S.D.) ([4]; single 25 μlit. dose of 4·10^-5 moles/liter to new-born rats): 11.5 ± 0.9; Antibody production, agglutination titer (X ± S.D.) ([4]; single 25 μlit. dose of 4·10^-7 moles/liter to new-born rats): 12.0 ± 0
CC(C)[C@H](NC(=O)[C@H](CC(=O)O)NC(=O)[C@H](CCCCN)NC(=O)[C@@H](N)CCCNC(=N)N)C(=O)O [Arg--Lys--Asp--Val, Arg-Lys-Asp-Val] (H-RKDV-OH) | 36.2% | 31.5% | 34.4% | 36.8% | 32.6% | 41.3% | 39.1% |  | 38.5% | 43.0% | 33.7% |  |  |  | significantly stimulated |  |  |  |  | active | Effect on E-rosette forming activity (in words) ([2]; 10^-9 moles/lit.): significant stimulating effect; Ratio of the plaque formation produced by treated and untreated (control) animals ([3]; single i.p. dose 2.5·10^-3 mmoles): 0.34; Ratio of the plaque formation produced by treated and untreated (control) animals ([3]; single i.p. dose 2.5·10^-4 mmoles): 0.8
CC(C)[C@H](NC(=O)[C@H](CC(=O)O)NC(=O)[C@H](CCCCN)NC(=O)[C@@H](N)CCCNC(=N)N)C(N)=O [Arg--Lys--Asp--Val--NH2, Arg-Lys-Asp-Val-NH2] (H-RKDV-NH2) | 31.5% | 29.8% | 26.9% | 34.8% | 28.2% | 29.0% | 33.8% |  | 35.1% | 26.6% | 38.1% |  | 0.3 | 0.52 | significantly stimulated | 5.2 ± 2.2 | 6.2 ± 2.0 | about two-times increase | 2.7 |  | Effect on E-rosette forming activity (in words) ([2]; 10^-11 moles/lit.): stimulating effect; In vivo effect on the antibody production (in words) ([6]; 4.10^-8 moles/lit.): significant stimulating activity; Antibody production, agglutination titer (X ± S.D.) [6, 12]: 6.8 ± 0.8
CC(C)[C@H](NC(=O)[C@H](CC(=O)O)NC(=O)[C@H](CCCCN)NC(=O)[C@H](CCCNC(=N)N)NC(=O)[C@@H]1CCC(=O)N1)C(=O)N[C@@H](Cc1ccc(O)cc1)C(=O)O [Glp--Arg--Lys--Asp--Val--Tyr, Glp-Arg-Lys-Asp-Val-Tyr] ([pGlu]RKDVY-OH) | 24.1% | 22.7% | 22.6% | 26.6% | 24.9% | 29.9% | 22.5% |  | 29.4% | 25.5% | 29.9% |  |  |  |  |  |  |  |  |  | In vivo effect on the antibody production (in words) ([4]; 2.10^-3 moles/lit.): inhibiting activity; Antibody production, agglutination titer (X ± S.D.) ([4]; column 4·10^-3 moles/liter, footnote x: concentration is half of the head value): 3.0 ± 1.0; Antibody production, agglutination titer (X ± S.D.) ([4]; column 4·10^-5 moles/liter, footnote x: concentration is half of the head value): 5.2 ± 0.8; Antibody production, agglutination titer (X ± S.D.) ([6]; footnote y: concentration 2·10^-1 moles/liter): 5.5 ± 0.6
